According to patent US9617219B2, “Polymorphs of 3-difluoromethyl-1-methyl-1 H-pyrazole-4-carboxylic acid (9-dichloro-methylene-1,2,3,4-tetrahydro-1,4-methano-naphthalen-5-yl)-amide” (Syngenta Participations AG, priority 2014, dated 2017):

Columns and labels:
[1] = Competitive slurries of anhydrous Form 1 and hydrate in water/methanol mixtures, stable form determined by DSC; assay type: physicochemical; design: key to stable crystal form: A indicates the anhydrous form is the stable form; H indicates the hydrate is the stable form; U data was inconclusive
Experimental: DSC was carried out using a Mettler Toledo DSC 820 or DSC1. A sample loading of around 5 mg was used and this was heated from 40° C. to 250° C. at a rate of 10° C./minute on the DSC820 or from 25° C. to 250° C. at a rate of 10° C./minute on the DSC1. The lid of the DSC crucible was pierced to allow the escape of any gas formed during the heating of the sample. The thermodynamic stability of hydrated crystals depends not only on temperature but also on the abundance of water, or more precisely, the water activity (aw), which is equivalent to the relative humidity. In order to determine under which conditions the anhydrous polymorph Form 1 and the hydrate are stable, a series of competitive slurries containing both crystal forms were prepared in different water/methanol mixtures and at a range of temperatures. The resulting crystals were analysed by DSC to determine the stable form under the given conditions. […] From the data above, the water/methanol compositions were converted into water activities and a phase diagram was constructed.

[2] = Stability of suspension concentrate formulation of anhydrous Form 1 contaminated with 5% hydrated form, temperature cycling; assay type: physicochemical; conditions: SC of anhydrous Form 1 with 5% hydrated form, cycling 0° C. to 40° C. over 12 hours, after two weeks
Experimental: Two standard suspension concentrate (SC) formulations were separately prepared using the anhydrous Form 1 polymorph and the hydrated polymorph. The SC of the anhydrous Form 1 was contaminated with 5% of the hydrated form and placed in a temperature cycling oven varying from 0° C. to 40° C. over 12 hours. After two weeks, the sample was inspected. […] Some crystals were removed from the formulation and dried.

Question: Which results are given for `Cn1cc(C(=O)Nc2cccc3c2C2CCC3C2=C(Cl)Cl)c(C(F)F)n1` (racemic) [compound of formula (I), 3-difluoromethyl-1-methyl-1H-pyrazole-4-carboxylic acid (9-dichloromethylene-1,2,3,4-tetrahydro-1,4-methano-naphthalen-5-yl)-amide]?
Answer: stable crystal form ([1]; 1% water in methanol, 5 °C): A; stable crystal form ([1]; 1% water in methanol, 20 °C): A; stable crystal form ([1]; 1% water in methanol, 35 °C): A; stable crystal form ([1]; 1% water in methanol, 40 °C): A; stable crystal form ([1]; 1% water in methanol, 45 °C): A; stable crystal form ([1]; 1% water in methanol, 60 °C): A; stable crystal form ([1]; 5% water in methanol, 5 °C): A; stable crystal form ([1]; 5% water in methanol, 20 °C): A; stable crystal form ([1]; 5% water in methanol, 35 °C): A; stable crystal form ([1]; 5% water in methanol, 40 °C): A; stable crystal form ([1]; 5% water in methanol, 45 °C): A; stable crystal form ([1]; 5% water in methanol, 60 °C): A; stable crystal form ([1]; 7.5% water in methanol, 5 °C): H; stable crystal form ([1]; 7.5% water in methanol, 15 °C): H; stable crystal form ([1]; 10% water in methanol, 5 °C): H; stable crystal form ([1]; 10% water in methanol, 15 °C): H; stable crystal form ([1]; 10% water in methanol, 20 °C): U; stable crystal form ([1]; 10% water in methanol, 30 °C): U; stable crystal form ([1]; 10% water in methanol, 35 °C): A; stable crystal form ([1]; 10% water in methanol, 40 °C): A; stable crystal form ([1]; 10% water in methanol, 45 °C): A; stable crystal form ([1]; 10% water in methanol, 60 °C): A; stable crystal form ([1]; 12.5% water in methanol, 5 °C): H; stable crystal form ([1]; 15% water in methanol, 5 °C): H; stable crystal form ([1]; 15% water in methanol, 15 °C): H; stable crystal form ([1]; 15% water in methanol, 50 °C): H; stable crystal form ([1]; 15% water in methanol, 60 °C): A; stable crystal form ([1]; 20% water in methanol, 20 °C): H; stable crystal form ([1]; 20% water in methanol, 30 °C): H; stable crystal form ([1]; 20% water in methanol, 35 °C): H; stable crystal form ([1]; 20% water in methanol, 40 °C): H; stable crystal form ([1]; 20% water in methanol, 45 °C): H; stable crystal form ([1]; 20% water in methanol, 60 °C): H; stable crystal form ([1]; 25% water in methanol, 50 °C): H; stable crystal form ([1]; 25% water in methanol, 60 °C): H; stable crystal form ([1]; 35% water in methanol, 60 °C): H

Question: For `Cn1cc(C(=O)Nc2cccc3c2C2CCC3C2=C(Cl)Cl)c(C(F)F)n1` (stereo not drawn) [hydrate of compound (I), 3-difluoromethyl-1-methyl-1H-pyrazole-4-carboxylic acid (9-dichloromethylene-1,2,3,4-tetrahydro-1,4-methano-naphthalen-5-yl)-amide], which “temperature required to dehydrate the hydrate” value ([1]; normal ambient relative humidities, from phase diagram (FIG. 3)) is on record?
Answer: Its value is over 60 °C.

Question: For `Cn1cc(C(=O)Nc2cccc3c2C2CCC3C2=C(Cl)Cl)c(C(F)F)n1` (stereo not drawn) [anhydrous polymorph Form 1, 3-difluoromethyl-1-methyl-1H-pyrazole-4-carboxylic acid (9-dichloromethylene-1,2,3,4-tetrahydro-1,4-methano-naphthalen-5-yl)-amide], which “polymorphic conversion (powder X-ray diffraction)” value [2] is on record?
Answer: The value was “fully converted to the hydrated form”.

Question: And the “size of the crystals (microscopy)” value [2]?
Answer: The value was “increased substantially”.
